Reference: PMC12300041, “Tricyclic Isatin Derivatives as Anti-Inflammatory Compounds with High Kinase Binding Affinity” (Molecules, 2025)

How the values were obtained:
Experiment in all cases: KINOMEscan
Assay type in all cases: binding
MAPKAPK5 = target: T1, MAPKAPK5 (Homo sapiens, UniProt Q8IW41)
T1 construct: purchased Eurofins DiscoverX KINOMEscan
How it was run: (§1)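 Compound and kinase were incubated at room temperature for 1 h, the free kinase fraction was captured with an immobilized affinity ligand, and capture was quantified by quantitative PCR; Kd values used a 12-point half-log series up to 33 μM.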

TRPM6 = target: T2, TRPM6 (Homo sapiens, UniProt Q9BX84)
T2 construct: purchased Eurofins DiscoverX KINOMEscan
How it was run: as §1

CDKL3 = target: T3, CDKL3 (Homo sapiens, UniProt Q8IVW4)
T3 construct: purchased Eurofins DiscoverX KINOMEscan
How it was run: as §1

[1] = target: T4, RPS6KA4 (Kin. Dom.2-C-term.) (Homo sapiens, UniProt O75676)
T4 construct: RPS6KA4 (Kin. Dom.2-C-term.); purchased Eurofins DiscoverX KINOMEscan
How it was run: as §1

MEK6 = target: T5, MEK6 (Homo sapiens, UniProt P52564)
T5 construct: purchased Eurofins DiscoverX KINOMEscan
How it was run: as §1

BIKE = target: T6, BIKE (Homo sapiens, UniProt Q9NSY1)
T6 construct: purchased Eurofins DiscoverX KINOMEscan
How it was run: as §1

MAPKAPK2 = target: T7, MAPKAPK2 (Homo sapiens, UniProt P49137)
T7 construct: purchased Eurofins DiscoverX KINOMEscan
How it was run: as §1

RIOK3 = target: T8, RIOK3 (Homo sapiens, UniProt O14730)
T8 construct: purchased Eurofins DiscoverX KINOMEscan
How it was run: as §1

PIK3CA (E545A) = target: T9, PIK3CA (E545A) (Homo sapiens, UniProt P42336, E545A)
T9 construct: purchased Eurofins DiscoverX KINOMEscan
How it was run: as §1

PKN2 = target: T10, PKN2 (Homo sapiens, UniProt Q16513)
T10 construct: purchased Eurofins DiscoverX KINOMEscan
How it was run: as §1

KIT (D816V) = target: T11, KIT (D816V) (Homo sapiens, UniProt P10721, D816V)
T11 construct: purchased Eurofins DiscoverX KINOMEscan
How it was run: as §1

KIT-autoinhibited = target: T12, KIT-autoinhibited (Homo sapiens, UniProt P10721)
T12 construct: purchased Eurofins DiscoverX KINOMEscan
How it was run: as §1

MAP3K1 = target: T13, MAP3K1 (Homo sapiens, UniProt Q13233)
T13 construct: purchased Eurofins DiscoverX KINOMEscan
How it was run: as §1

SIK2 = target: T14, SIK2 (Homo sapiens, UniProt Q9H0K1)
T14 construct: purchased Eurofins DiscoverX KINOMEscan
How it was run: as §1

SgK110 = target: T15, SgK110 (Homo sapiens, UniProt P0C264)
T15 construct: purchased Eurofins DiscoverX KINOMEscan
How it was run: as §1

WNK1 = target: T16, WNK1 (Homo sapiens, UniProt Q9H4A3)
T16 construct: purchased Eurofins DiscoverX KINOMEscan
How it was run: as §1

CLK2 = target: T17, CLK2 (Homo sapiens, UniProt P49760)
T17 construct: purchased Eurofins DiscoverX KINOMEscan
How it was run: as §1

PIK3CA = target: T18, PIK3CA (Homo sapiens, UniProt P42336)
T18 construct: purchased Eurofins DiscoverX KINOMEscan
How it was run: as §1

CAMK1 = target: T19, CAMK1 (Homo sapiens, UniProt Q14012)
T19 construct: purchased Eurofins DiscoverX KINOMEscan
How it was run: as §1

RET (V804L) = target: T20, RET (V804L) (Homo sapiens, UniProt P07949, V804L)
T20 construct: purchased Eurofins DiscoverX KINOMEscan
How it was run: as §1

PCTK2 = target: T21, PCTK2 (Homo sapiens, UniProt Q00537)
T21 construct: purchased Eurofins DiscoverX KINOMEscan
How it was run: as §1

RIOK2 = target: T22, RIOK2 (Homo sapiens, UniProt Q9BVS4)
T22 construct: purchased Eurofins DiscoverX KINOMEscan
How it was run: as §1

CSNK1G1 = target: T23, CSNK1G1 (Homo sapiens, UniProt Q9HCP0)
T23 construct: purchased Eurofins DiscoverX KINOMEscan
How it was run: as §1

SRMS = target: T24, SRMS (Homo sapiens, UniProt Q9H3Y6)
T24 construct: purchased Eurofins DiscoverX KINOMEscan
How it was run: as §1

MKK7 = target: T25, MKK7 (Homo sapiens, UniProt O14733)
T25 construct: purchased Eurofins DiscoverX KINOMEscan
How it was run: as §1

EPHB1 = target: T26, EPHB1 (Homo sapiens, UniProt P54762)
T26 construct: purchased Eurofins DiscoverX KINOMEscan
How it was run: as §1

CTK = target: T27, CTK (Homo sapiens, UniProt P42679)
T27 construct: purchased Eurofins DiscoverX KINOMEscan
How it was run: as §1

MEK1 = target: T28, MEK1 (Homo sapiens, UniProt Q02750)
T28 construct: purchased Eurofins DiscoverX KINOMEscan
How it was run: as §1

PIK3CA (I800L) = target: T29, PIK3CA (I800L) (Homo sapiens, UniProt P42336, I800L)
T29 construct: purchased Eurofins DiscoverX KINOMEscan
How it was run: as §1

ALK = target: T30, ALK (Homo sapiens, UniProt Q9UM73)
T30 construct: purchased Eurofins DiscoverX KINOMEscan
How it was run: as §1

ARK5 = target: T31, ARK5 (Homo sapiens, UniProt O60285)
T31 construct: purchased Eurofins DiscoverX KINOMEscan
How it was run: as §1

DLK = target: T32, DLK (Homo sapiens, UniProt Q12852)
T32 construct: purchased Eurofins DiscoverX KINOMEscan
How it was run: as §1

MRCKB = target: T33, MRCKB (Homo sapiens, UniProt Q9Y5S2)
T33 construct: purchased Eurofins DiscoverX KINOMEscan
How it was run: as §1

ZAK = target: T34, ZAK (Homo sapiens, UniProt Q9NYL2)
T34 construct: purchased Eurofins DiscoverX KINOMEscan
How it was run: as §1

MAP4K5 = target: T35, MAP4K5 (Homo sapiens, UniProt Q9Y4K4)
T35 construct: purchased Eurofins DiscoverX KINOMEscan
How it was run: as §1

PRKG2 = target: T36, PRKG2 (Homo sapiens, UniProt Q13237)
T36 construct: purchased Eurofins DiscoverX KINOMEscan
How it was run: as §1

MST1R = target: T37, MST1R (Homo sapiens, UniProt Q04912)
T37 construct: purchased Eurofins DiscoverX KINOMEscan
How it was run: as §1

ERBB3 = target: T38, ERBB3 (Homo sapiens, UniProt P21860)
T38 construct: purchased Eurofins DiscoverX KINOMEscan
How it was run: as §1

FLT3-autoinhibited = target: T39, FLT3-autoinhibited (Homo sapiens, UniProt P36888)
T39 construct: purchased Eurofins DiscoverX KINOMEscan
How it was run: as §1

T25 sequence (O14733 whole entry): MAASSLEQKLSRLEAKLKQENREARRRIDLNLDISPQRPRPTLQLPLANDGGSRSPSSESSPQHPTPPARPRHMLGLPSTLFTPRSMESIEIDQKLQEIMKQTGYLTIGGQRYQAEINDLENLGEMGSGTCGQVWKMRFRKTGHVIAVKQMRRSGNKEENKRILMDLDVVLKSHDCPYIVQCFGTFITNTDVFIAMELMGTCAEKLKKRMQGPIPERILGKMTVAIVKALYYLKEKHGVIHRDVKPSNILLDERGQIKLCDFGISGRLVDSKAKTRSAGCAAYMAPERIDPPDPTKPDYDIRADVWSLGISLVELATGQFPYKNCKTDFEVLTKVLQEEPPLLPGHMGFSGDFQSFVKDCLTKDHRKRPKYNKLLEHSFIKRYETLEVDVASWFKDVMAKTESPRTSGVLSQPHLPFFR
T33 sequence (Q9Y5S2 whole entry): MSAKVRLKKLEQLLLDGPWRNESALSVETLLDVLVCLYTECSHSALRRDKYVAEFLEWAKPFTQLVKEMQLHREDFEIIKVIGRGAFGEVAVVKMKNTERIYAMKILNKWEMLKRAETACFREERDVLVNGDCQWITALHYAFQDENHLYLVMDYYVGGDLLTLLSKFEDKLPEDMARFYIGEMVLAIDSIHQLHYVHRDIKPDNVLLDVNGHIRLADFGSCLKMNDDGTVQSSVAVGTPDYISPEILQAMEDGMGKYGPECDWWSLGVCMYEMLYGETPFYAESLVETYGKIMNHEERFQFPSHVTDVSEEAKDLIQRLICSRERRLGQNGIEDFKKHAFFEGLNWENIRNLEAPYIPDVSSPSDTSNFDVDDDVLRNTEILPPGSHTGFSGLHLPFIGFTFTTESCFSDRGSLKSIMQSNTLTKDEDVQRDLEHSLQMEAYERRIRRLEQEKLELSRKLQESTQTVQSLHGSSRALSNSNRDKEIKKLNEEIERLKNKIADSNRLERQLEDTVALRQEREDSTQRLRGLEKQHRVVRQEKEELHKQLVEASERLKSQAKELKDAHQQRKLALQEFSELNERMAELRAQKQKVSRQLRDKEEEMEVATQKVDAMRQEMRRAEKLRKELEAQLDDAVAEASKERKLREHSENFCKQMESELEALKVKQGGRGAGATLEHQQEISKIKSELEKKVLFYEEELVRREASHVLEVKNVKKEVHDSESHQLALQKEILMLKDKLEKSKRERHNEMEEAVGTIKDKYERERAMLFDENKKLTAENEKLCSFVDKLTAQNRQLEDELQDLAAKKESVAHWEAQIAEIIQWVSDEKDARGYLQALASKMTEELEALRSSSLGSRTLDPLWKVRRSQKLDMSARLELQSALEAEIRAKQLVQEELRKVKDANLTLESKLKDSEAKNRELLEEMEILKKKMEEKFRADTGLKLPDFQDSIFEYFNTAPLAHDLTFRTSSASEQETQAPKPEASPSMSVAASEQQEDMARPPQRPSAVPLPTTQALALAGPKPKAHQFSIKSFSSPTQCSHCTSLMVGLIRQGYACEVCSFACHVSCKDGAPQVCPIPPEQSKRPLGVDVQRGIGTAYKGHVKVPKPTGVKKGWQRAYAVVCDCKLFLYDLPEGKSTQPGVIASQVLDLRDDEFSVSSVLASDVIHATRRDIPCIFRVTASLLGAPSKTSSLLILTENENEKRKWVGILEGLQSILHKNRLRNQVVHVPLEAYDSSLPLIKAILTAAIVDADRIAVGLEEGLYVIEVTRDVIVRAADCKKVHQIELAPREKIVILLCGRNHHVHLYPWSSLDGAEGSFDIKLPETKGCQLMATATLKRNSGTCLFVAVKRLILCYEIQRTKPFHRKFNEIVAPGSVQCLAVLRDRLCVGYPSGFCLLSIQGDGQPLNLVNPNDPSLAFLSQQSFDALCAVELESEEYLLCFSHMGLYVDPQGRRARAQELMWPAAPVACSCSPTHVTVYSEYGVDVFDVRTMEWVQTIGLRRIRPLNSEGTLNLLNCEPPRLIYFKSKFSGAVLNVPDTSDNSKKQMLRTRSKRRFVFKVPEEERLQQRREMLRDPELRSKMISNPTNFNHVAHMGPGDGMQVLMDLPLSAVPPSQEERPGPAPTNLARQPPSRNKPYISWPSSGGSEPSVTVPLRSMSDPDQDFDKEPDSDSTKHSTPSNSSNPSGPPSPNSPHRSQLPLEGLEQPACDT
T18 sequence (P42336 whole entry): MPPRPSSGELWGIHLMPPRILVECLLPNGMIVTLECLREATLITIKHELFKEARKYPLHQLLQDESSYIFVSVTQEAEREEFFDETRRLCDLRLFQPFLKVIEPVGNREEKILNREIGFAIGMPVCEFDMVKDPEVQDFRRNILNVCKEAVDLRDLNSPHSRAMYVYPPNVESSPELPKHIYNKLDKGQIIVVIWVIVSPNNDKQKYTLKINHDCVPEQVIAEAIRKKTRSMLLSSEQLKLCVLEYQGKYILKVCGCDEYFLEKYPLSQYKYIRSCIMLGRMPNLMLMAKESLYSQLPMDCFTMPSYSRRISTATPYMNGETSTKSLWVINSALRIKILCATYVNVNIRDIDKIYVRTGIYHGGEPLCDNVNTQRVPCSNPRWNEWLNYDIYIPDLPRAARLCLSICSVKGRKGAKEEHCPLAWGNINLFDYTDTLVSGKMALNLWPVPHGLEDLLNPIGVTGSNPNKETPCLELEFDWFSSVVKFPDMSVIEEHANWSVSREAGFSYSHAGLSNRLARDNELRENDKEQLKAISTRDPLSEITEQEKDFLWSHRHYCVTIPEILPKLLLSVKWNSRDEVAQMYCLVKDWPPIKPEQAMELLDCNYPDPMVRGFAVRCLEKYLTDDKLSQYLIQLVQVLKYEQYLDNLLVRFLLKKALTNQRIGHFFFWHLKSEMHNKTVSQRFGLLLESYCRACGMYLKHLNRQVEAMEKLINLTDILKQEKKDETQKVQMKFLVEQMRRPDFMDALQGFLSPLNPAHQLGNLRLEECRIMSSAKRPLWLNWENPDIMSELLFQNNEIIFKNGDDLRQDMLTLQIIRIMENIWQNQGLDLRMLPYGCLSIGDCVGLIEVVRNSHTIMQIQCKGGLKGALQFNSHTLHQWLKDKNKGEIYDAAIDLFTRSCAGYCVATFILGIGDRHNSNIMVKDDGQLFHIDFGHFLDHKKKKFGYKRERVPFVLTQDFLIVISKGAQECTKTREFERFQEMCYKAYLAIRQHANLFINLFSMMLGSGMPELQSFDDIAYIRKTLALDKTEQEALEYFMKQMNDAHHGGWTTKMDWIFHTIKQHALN
T38 sequence (P21860 20-1342): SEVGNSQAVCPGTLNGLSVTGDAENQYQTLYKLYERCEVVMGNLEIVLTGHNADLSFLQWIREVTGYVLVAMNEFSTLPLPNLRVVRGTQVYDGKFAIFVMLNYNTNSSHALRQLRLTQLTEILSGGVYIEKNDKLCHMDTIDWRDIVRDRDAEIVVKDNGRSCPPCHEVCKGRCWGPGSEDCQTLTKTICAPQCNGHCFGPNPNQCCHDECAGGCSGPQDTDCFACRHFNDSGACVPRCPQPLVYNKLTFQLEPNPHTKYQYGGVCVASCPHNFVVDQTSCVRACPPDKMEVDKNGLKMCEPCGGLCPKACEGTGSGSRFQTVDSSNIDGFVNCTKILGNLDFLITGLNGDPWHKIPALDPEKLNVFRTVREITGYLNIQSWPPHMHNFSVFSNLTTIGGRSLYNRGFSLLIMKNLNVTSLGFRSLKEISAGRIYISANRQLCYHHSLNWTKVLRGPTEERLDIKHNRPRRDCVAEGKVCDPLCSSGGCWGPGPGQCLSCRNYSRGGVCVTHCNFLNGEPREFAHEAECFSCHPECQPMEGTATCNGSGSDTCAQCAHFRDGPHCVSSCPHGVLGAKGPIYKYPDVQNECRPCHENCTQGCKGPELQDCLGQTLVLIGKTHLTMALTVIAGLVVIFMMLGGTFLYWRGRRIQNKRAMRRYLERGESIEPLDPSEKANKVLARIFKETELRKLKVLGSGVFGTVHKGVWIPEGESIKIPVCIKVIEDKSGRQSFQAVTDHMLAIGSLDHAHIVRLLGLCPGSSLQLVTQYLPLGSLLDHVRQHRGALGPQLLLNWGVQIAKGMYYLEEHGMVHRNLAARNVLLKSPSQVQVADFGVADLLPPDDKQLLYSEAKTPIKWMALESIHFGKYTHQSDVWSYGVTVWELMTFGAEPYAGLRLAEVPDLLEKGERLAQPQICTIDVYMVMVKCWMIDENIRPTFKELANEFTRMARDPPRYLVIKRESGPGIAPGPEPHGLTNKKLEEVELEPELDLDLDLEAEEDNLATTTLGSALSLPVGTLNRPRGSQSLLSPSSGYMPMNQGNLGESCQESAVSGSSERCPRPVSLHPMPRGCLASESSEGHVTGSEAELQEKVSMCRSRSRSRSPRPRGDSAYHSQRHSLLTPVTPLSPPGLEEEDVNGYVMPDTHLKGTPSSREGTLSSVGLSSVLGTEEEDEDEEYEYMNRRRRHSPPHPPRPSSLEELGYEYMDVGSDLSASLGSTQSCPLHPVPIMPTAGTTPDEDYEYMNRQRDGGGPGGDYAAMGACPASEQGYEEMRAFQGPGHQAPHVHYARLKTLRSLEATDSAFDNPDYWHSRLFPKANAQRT
T7 sequence (P49137 whole entry): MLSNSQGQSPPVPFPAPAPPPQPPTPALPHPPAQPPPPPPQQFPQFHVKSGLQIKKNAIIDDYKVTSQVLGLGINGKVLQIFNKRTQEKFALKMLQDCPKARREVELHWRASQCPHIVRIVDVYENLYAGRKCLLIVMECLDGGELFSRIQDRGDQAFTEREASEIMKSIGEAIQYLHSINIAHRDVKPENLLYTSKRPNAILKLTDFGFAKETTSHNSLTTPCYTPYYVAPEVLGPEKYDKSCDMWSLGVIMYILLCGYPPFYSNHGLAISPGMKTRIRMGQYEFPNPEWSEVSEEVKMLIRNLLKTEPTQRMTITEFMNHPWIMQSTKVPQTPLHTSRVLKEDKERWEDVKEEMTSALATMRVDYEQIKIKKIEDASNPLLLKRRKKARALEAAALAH
T9 sequence (P42336 whole entry E545A): as the sequence (P42336 whole entry) above, with E545A counted along it
T29 sequence (P42336 whole entry I800L): as the sequence (P42336 whole entry) above, with I800L counted along it

O=C1Nc2c(cc([N+](=O)[O-])c3c2CCCC3)C1=NO [Compound 5d, 3-(Hydroxyimino)-5-nitro-1,3,6,7,8,9-hexahydro-2H-benzo[g]indol-2-one]
inhibition at 10 µM (MAPKAPK5): 2% | inhibition at 10 µM (TRPM6): 8% | inhibition at 10 µM (CDKL3): 7% | inhibition at 10 µM [1]: 89.3% | inhibition at 10 µM (MEK6): 3% | inhibition at 10 µM (BIKE): 75% | inhibition at 10 µM (MAPKAPK2): 9% | inhibition at 10 µM (RIOK3): 19% | inhibition at 10 µM (PIK3CA (E545A)): 30% | inhibition at 10 µM (PKN2): 84% | inhibition at 10 µM (KIT (D816V)): 22% | inhibition at 10 µM (KIT-autoinhibited): 0% | inhibition at 10 µM (MAP3K1): 6% | inhibition at 10 µM (SIK2): 7% | inhibition at 10 µM (SgK110): 0% | inhibition at 10 µM (WNK1): 12% | inhibition at 10 µM (CLK2): 95.9% | inhibition at 10 µM (PIK3CA): 0% | inhibition at 10 µM (CAMK1): 38% | inhibition at 10 µM (RET (V804L)): 2% | inhibition at 10 µM (PCTK2): 0% | inhibition at 10 µM (RIOK2): 80% | inhibition at 10 µM (CSNK1G1): 84% | inhibition at 10 µM (SRMS): 29% | inhibition at 10 µM (MKK7): 0% | Inhib. (%) (MKK7; 10 μM): inactive | inhibition at 10 µM (EPHB1): 0% | inhibition at 10 µM (CTK): 0% | inhibition at 10 µM (MEK1): 93.1% | inhibition at 10 µM (PIK3CA (I800L)): 5% | inhibition at 10 µM (ALK): 46% | inhibition at 10 µM (ARK5): 24% | inhibition at 10 µM (DLK): 23% | inhibition at 10 µM (MRCKB): 0% | inhibition at 10 µM (ZAK): 14% | inhibition at 10 µM (MAP4K5): 12% | inhibition at 10 µM (PRKG2): 6% | inhibition at 10 µM (MST1R): 0% | inhibition at 10 µM (ERBB3): 0% | inhibition at 10 µM (FLT3-autoinhibited): 4%
